Measurements from US7067486B2, “Acetylcholinesterase-derived peptides and uses thereof” (priority 1999, dated 2006).
Marks after values point to notes of the source that are not given here.

Assays:
[1] = test system: CD34^+ cells; assay: Cell phenotyping of CD34+ liquid cultures by flow cytometry (CD34, CD33, CD15, CD41); format: cell-based, human; conditions: day 14; seeded at 50,000 cells/well; ARP 2 nM, cortisol 1.2 μM, ASP 2 nM, SCF 50 ng/ml, AS1 20 pM, PBAN 2 nM
Source text: Cell Source: UCB was collected, following informed consent of the parents and with the approval of the Sourasky Medical Center Ethics Committee, as previously described [Grisaru et al. (1999a) Am. J. Obstet. Gynecol, 180, 1240–1243]. Following 1:1 (v/v) dilution in Iscove's modified Dulbecco medium (IMDM, Beit Haemek, Israel), mononuclear cells were separated using 3% gelatin (Difco, Detroit, Mich.) and Ficoll-Hypaque gradients (<1.077 g/ml; Pharmacia, Uppsala, Sweden) [Pick et al. (1998) Br. J. Haematol. 103, 639–50]. CD34^+ cells were enriched using CD34 immunoglobulin-coated magnetic beads (CD34 progenitor cell selection system, Dynal, Norway).CD34^+ cells analysis was performed by flow cytometry (Becton Dickinson Immunocytochemistry System Inc., San Jose, Calif.), using CD34-PE (Becton Dickinson Immunocytometry System, Inc.) and CD45-FITC (Dako, Glostrup, Denmark) monoclonal antibodies. […] Liquid Cultures: UCB CD34^+ cells were set for liquid cultures at a concentration of 10^5/mL in IMDM, containing 10% autologous plasma, 2 mM L-glutamine (Sigma Chemical Co., St Louis, Mo.), penicillin ([…]), streptomycin ([…]), amphotericin B (2×10^−5 M) (Sigma Chemical Co.), and heparin (20 IU/mL, Gibco, Grand Island, N.Y.), all in a fully humidified atmosphere at 37° C. and 5% CO2. The following elements were added where noted: • 1. […] Endothlial Growth factors: Epidermal growth factor (EGF 10 ng/ml, Sigma Chemical Co.), basic Fibroblast growth factor (bFGF 20 ng/ml, Sigma Chemical Co.) incubated in a serum free medium (SFM) for 48 hr. • 3. Stress mimicking conditions: Hydrocortisone sodium succinate (Abic Ltd., Netanya, Israel) at concentrations equivalent to normal, intermediate and stress serum cortisol levels (0.1, 0.6 and 1.2 μM, respectively (De Vroede et al., Arch. Des. […] Antisense oligonucleotides: 3′-terminal 2′-O-Methylated 15- and 20-mer oligodeoxynucleotides in the antisense (AS) orientation, targeted against the common sequence domain in human AChEmRNA and BuChE mRNA, as control, […], as detailed elsewhere [Grisaru et al. (1999b) Mol. Cell. Biol. 19, 788–95]. • 5. AChE C-terminal peptides: The following C-terminal peptides of the AChE synaptic (ASP, also denoted SEQ ID: No. 2) and readthrough (ARP, also denoted SEQ ID: No. 1) isoforms were synthesized using a 433A peptide synthesizer (PE Applied Biosystems, Inc., Norwalk, Conn.). • ASP: 1-[…]-40, also denoted as SEQ ID: No. 2. • ARP: 1-[…]-26, also denoted as SEQ ID: No. 1.
Culture Analyses: Twenty-four hr liquid cultures served for cytochemical staining, in situ hybridization, and cell proliferation assay by 5-bromo-2′-deoxy-Uridine (BrdU) incorporation [Grisaru et al. (1999b) id ibid.]. Twenty-eight day liquid cultures were sampled every 6–8 days for viable cell counting (using trypan blue dye exclusion), cell phenotyping (CD34^+, CD33^+ and CD41^+ quantification using flow cytometry, with CD34-PE, CD33-FITC (Immunotech/Coulter, Hialeah, Fla.), CD41-FITC (Immunoquality Products, Groningen, Netherlands) and CD45-FITC monoclonal antibodies), and growth of progenitor colony (granulocyte-macrophage and megakaryocytic), using previously described techniques (Pick et al. (1998) id ibid.). […] 11, 1049–57]. Nuclear staining w with 4′,6-diamidino-2- phenylindole [DAPI, see e.g., Peterson et al. (1999) Genetics 152, 427–439].

[2] = test system: developing mouse brain; assay: BrdU labeling in developing brain after injection of pregnant mouse; format: in vivo; conditions: peptide 0.1 mg/Kg into pregnant mouse; BrdU 24 hr later
Source text: After 1 hr the embryo was isolated and fixed.
Embryonic neuroepithelial cells have one of two fates: (1) to continue proliferation and migration up and down from the ventricular zone up to the cortical plate, or (2) to quit the proliferative cycle and initiate terminal differentiation. The balance between these two processes determines the number of proliferating neuronal progenitors as well as the thickness of the cortical plate where post-mitotic neurons accumulate (see scheme at FIG. 10).

Substance: ASP (DTLDEAERQWKAEFHRWSSYMVHWKNQFDHYSKQDRCSDL)
- CD33^+ (early myeloids) [1]: 10.0 cells per culture × 10^−3
- CD33^+ and CD15^+ (total myeloids) [1]: 13.0 cells per culture × 10^−3
- CD34^+ (early progenitors) [1]: 7.2 cells per culture × 10^−3
- CD41^+ (megakaryocytes) [1]: 4.6^b cells per culture × 10^−3
- neuronal proliferation (BrdU labeled nuclei) in embryonic brain [2]: minor positive effect
